Measurements from PubChem BioAssay (NCI).
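Protocol summary: plate cells (96-well), add compound at 5 concentrations, incubate 48 h, interpolate endpoints linearly. TGI: total growth inhibition.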

Assays:
Test in all cases: NCI-60 cell line screen, 48 h
HCC-2998 colon = tested on: HCC-2998 colon
HCT-116 colon = tested on: HCT-116 colon
HL-60(TB) leukemia = tested on: HL-60(TB) leukemia
HOP-62 NSCLC = tested on: HOP-62 NSCLC
MDA-N = tested on: MDA-N
NCI-H460 lung = tested on: NCI-H460 lung
NCI-H522 lung = tested on: NCI-H522 lung
PC-3 prostate = tested on: PC-3 prostate
SK-MEL-28 melanoma = tested on: SK-MEL-28 melanoma
SK-MEL-5 melanoma = tested on: SK-MEL-5 melanoma
TK-10 renal = tested on: TK-10 renal
U251 CNS = tested on: U251 CNS

Row | SMILES | TGI (HCC-2998 colon) [µM] | TGI (HCT-116 colon) [µM] | TGI (HL-60(TB) leukemia) [µM] | TGI (HOP-62 NSCLC) [µM] | TGI (MDA-N) [µM] | TGI (NCI-H460 lung) [µM] | TGI (NCI-H522 lung) [µM] | TGI (PC-3 prostate) [µM] | TGI (SK-MEL-28 melanoma) [µM] | TGI (SK-MEL-5 melanoma) [µM] | TGI (TK-10 renal) [µM] | TGI (U251 CNS) [µM]
1 | O=C(CSc1nc2ccc(I)cc2c(=O)n1Cc1ccccc1)NNC(=O)c1ccccc1 | > 100 | > 100 | > 100 | 22.7 | > 100 | > 100 | 25.8 | 24 | 36.6 | 33 | 27.4 | > 100
2 | O=C1C=CC(=O)c2c1ccc1c3ccccc3n(Cc3cccc([N+](=O)[O-])c3)c21 | > 100 | > 62.7 | 15.3 | > 100 | 26.3 | > 100 | 37.2 | > 69 | > 60.4 | > 100 | 44.8 | > 100
3 | CCOc1cc2oc(C)cc(=O)c2c(OC)c1C=Nc1ccc(Cn2c(C)nc3ccccc32)cc1 | > 100 | > 100 | > 100 | > 100 | > 100 | > 100 | > 100 | > 100 | > 100 | > 100 | > 100 | > 100
4 | CCN(CC)Cc1c(/C=C\c2cc(OC)c(OC)c(OC)c2)ccc(OC)c1O | 20.4 | 42.7 | > 60.8 | > 100 | 1.59 | > 100 | 6.22 | > 41.5 | > 100 | > 83.7 | > 100 | 17.2
5 | O=C(CNC(c1ccccc1)(c1ccccc1)c1ccccc1)NC1CCCCC1NC(=O)CNC(c1ccccc1)(c1ccccc1)c1ccccc1 (stereo not given) | > 100 | > 100 | > 100 | 91.6 | > 100 | > 100 | > 100 | > 100 | > 100 | > 100 | > 100 | > 100
